From US20260286420A1, “REAGENT, KIT, METHOD FOR DETECTING ADP, AND USE THEREOF” (Neubo Apptech Co., Ltd., priority 2025, published 2026) come the findings set out here.

This data set is described as follows: ATP-removal effect of ATPS and pyrophosphatase, luciferase readout. The data set is classed as biochemical. The note with it: 100 μM ATP, 40 min at room temperature. As for the experimental part: The ATP-removal effect of the reagent in Example 1 was verified.
ATP sulfurylase was prepared in the following buffer: 50 mM Tris-HCl buffer (pH 7.4)+10 mM MgCl2+20 mM Na2MoO4, where the concentration of each component is the final concentration in the resultant solution.
Reagent for ADP detection: 50 mM Tris-HCl buffer (pH 7.4)+20 mM MgSO4+50 mM KCl+2 mM EDTA+2 mM EGTA+0.1 mM D-luciferin+0.1 mM PEP-K (phosphoenolpyruvate monopotassium salt)+50 μg/mL luciferase+20 U/mL a pyruvate kinase, where the concentration of each component is the final concentration in the resultant solution.
The bioluminescence detection instrument was an EnVision (Perkin Elmer).
Next, 25 μL of ATP ([…]) was added to each well of a 96-well white opaque assay plate, followed by the addition of 25 μL of pyrophosphatase (PPA: 10 U/mL) and ATP sulfurylase (ATPS) at concentrations of 2 μg/mL, 1 μg/mL, and 0.5 μg/mL.
After incubation at room temperature (22° C.-25° C.) for 40 minutes, 50 μL of the reagent for ADP detection was added and mixed uniformly, and the fluorescence values were read after incubation was performed at room temperature for 10 minutes.
After 1 μM ATP+0.1 mM D-luciferin+50 μg/mL luciferase+50 mM Tris-HCl buffer (pH 7.4)+20 mM MgSO4 were incubated at room temperature for 10 minutes, the fluorescence value read was 439,640.
After 0.1 μM ATP+0.1 mM D-luciferin+50 μg/mL luciferase+50 mM Tris-HCl buffer (pH 7.4)+20 mM MgSO4 were incubated at room temperature for 10 minutes, the fluorescence value read was 47,720.
The remaining ATP after the action of ATPS and PPA was determined by comparing with the fluorescence values under conditions of ATP at 1 μM and 0.1 μM (see Table 2). It can be seen that the remaining ATP of 100 μM ATP under the action of ATPS (1 μg/mL) and pyrophosphatase was about 0.006%.

Regarding ATPS, the “Luminescence (RLU)” value is on record as 3.44E+03 RLU (ATPS 0.5 μg/mL + PPA 10 U/mL), 2.88E+03 RLU (ATPS 1 μg/mL + PPA 10 U/mL) and 2.24E+03 RLU (ATPS 2 μg/mL + PPA 10 U/mL). Moreover, the “Remaining ATP (%)” value runs as follows: (ATPS 0.5 μg/mL + PPA 10 U/mL) 0.0072%; (ATPS 2 μg/mL + PPA 10 U/mL) 0.0047%.
